Laboratory results as given in ChEMBL document CHEMBL1157873, “Synthesis and biological activity of Delta-5,6-norcantharimides: importance of the 5,6-bridge” (Eur J Med Chem, 2010).

What was measured:
[1] = Cytotoxicity against human BE(2)-C cells at 100 uM after 72 hrs by MTT assay; format: functional
[2] = Cytotoxicity against human SJ-G2 cells at 100 uM after 72 hrs by MTT assay; format: functional; details: SJ-G2, 72 h
A2780 [3] = test: Cytotoxicity against human A2780 cells at 100 uM after 72 hrs by MTT assay; format: functional; details: A2780, 72 h
MCF7 [4] = test: Cytotoxicity against human MCF7 cells at 100 uM after 72 hrs by MTT assay; format: functional; details: MCF7, 72 h
A-431 [5] = test: Cytotoxicity against human A431 cells at 100 uM after 72 hrs by MTT assay; format: functional; details: A-431, 72 h
DU-145 [6] = test: Cytotoxicity against human DU145 cells at 100 uM after 72 hrs by MTT assay; format: functional; details: DU-145, 72 h
NCI-H460 [7] = test: Cytotoxicity against human H460 cells at 100 uM after 72 hrs by MTT assay; format: functional; details: NCI-H460, 72 h
HT-29 [8] = test: Cytotoxicity against human HT-29 cells at 100 uM after 72 hrs by MTT assay; format: functional; details: HT-29, 72 h
SW480 [9] = test: Cytotoxicity against human SW480 cells at 100 uM after 72 hrs by MTT assay; format: functional; details: SW480, 72 h
[10] = Inhibition of rabbit skeletal muscle protein phosphatase 1 assessed as free phosphate ion release after 60 mins by malachite green method; parameters: species or system Oryctolagus cuniculus
[11] = Cytotoxicity against human SJ-G2 cells after 72 hrs by MTT assay; format: functional; details: SJ-G2, 72 h
MCF7 [12] = test: Cytotoxicity against human MCF7 cells after 72 hrs by MTT assay; format: functional; details: MCF7, 72 h
HT-29 [13] = test: Cytotoxicity against human HT-29 cells after 72 hrs by MTT assay; format: functional; details: HT-29, 72 h
A2780 [14] = test: Cytotoxicity against human A2780 cells after 72 hrs by MTT assay; format: functional; details: A2780, 72 h
[15] = Cytotoxicity against human BE(2)-C cells after 72 hrs by MTT assay; format: functional
[16] = Inhibition of human red blood cells protein phosphatase 2A assessed as free phosphate ion release after 60 mins by malachite green method
DU-145 [17] = test: Cytotoxicity against human DU145 cells after 72 hrs by MTT assay; format: functional; details: DU-145, 72 h
A-431 [18] = test: Cytotoxicity against human A431 cells after 72 hrs by MTT assay; format: functional; details: A-431, 72 h
NCI-H460 [19] = test: Cytotoxicity against human H460 cells after 72 hrs by MTT assay; format: functional; details: NCI-H460, 72 h
SW480 [20] = test: Cytotoxicity against human SW480 cells after 72 hrs by MTT assay; format: functional; details: SW480, 72 h
[21] = Solubility of the compound; format: physicochemical

SMILES | inhibition at 100 µM [1] | inhibition at 100 µM [2] | inhibition at 100 µM (A2780 [3]) | inhibition at 100 µM (MCF7 [4]) | inhibition at 100 µM (A-431 [5]) | inhibition at 100 µM (DU-145 [6]) | inhibition at 100 µM (NCI-H460 [7]) | inhibition at 100 µM (HT-29 [8]) | inhibition at 100 µM (SW480 [9]) | other results
CC(CO)N1C(=O)[C@H]2CNC[C@H]2C1=O (stereo partly specified) | < 10% | < 10% | < 10% | < 10% | < 10% | < 10% | < 10% | 15% | < 10% | –
O=C1OC(=O)C2C3CCC(O3)C12 (stereo unspecified) | – | – | – | – | – | – | – | – | – | IC50 [10]: 7.7 µM; GI50 [11]: 23 µM; GI50 (MCF7 [12]): 68 µM; GI50 (HT-29 [13]): 57 µM; GI50 (A2780 [14]): 38 µM; GI50 [15]: 43 µM; IC50 [16]: 2.7 µM; GI50 (DU-145 [17]): 28 µM; GI50 (A-431 [18]): 31 µM; GI50 (NCI-H460 [19]): 45 µM; GI50 (SW480 [20]): 44 µM
NCCC[C@@H](C(=O)O)N1C(=O)[C@H]2CNC[C@H]2C1=O | 23% | < 10% | 11% | 22% | 16% | < 10% | 16% | 12% | 11% | –
O=C1OC(=O)[C@@H]2CSC[C@H]12 | – | – | – | – | – | – | – | – | – | IC50 [10]: > 100 µM; solubility [21]: Insoluble; IC50 [16]: > 100 µM
O=C1[C@H]2CNC[C@H]2C(=O)N1CCN1CCOCC1 | < 10% | < 10% | < 10% | 11% | 10% | < 10% | < 10% | < 10% | < 10% | –
CCC(CO)N1C(=O)[C@H]2CNC[C@H]2C1=O (stereo partly specified) | < 10% | < 10% | < 10% | < 10% | < 10% | < 10% | < 10% | < 10% | < 10% | –
NCC[C@@H](C(=O)O)N1C(=O)[C@H]2CNC[C@H]2C1=O | < 10% | < 10% | < 10% | < 10% | < 10% | < 10% | < 10% | < 10% | < 10% | –
O=C1[C@H]2COC[C@H]2C(=O)N1CCN1CCOCC1 | < 10% | < 10% | 13% | < 10% | < 10% | < 10% | < 10% | < 10% | < 10% | –
CCOC(=O)CC[C@@H](C(=O)OCC)N1C(=O)[C@H]2COC[C@H]2C1=O | < 10% | < 10% | 29% | 28% | 13% | 20% | 13% | 30% | 34% | –
CCC(CO)N1C(=O)[C@H]2COC[C@H]2C1=O (stereo partly specified) | < 10% | < 10% | 13% | < 10% | < 10% | < 10% | < 10% | < 10% | < 10% | –
CCCN1C(=O)[C@H]2CNC[C@H]2C1=O | – | – | – | – | – | – | – | – | – | solubility [21]: Insoluble
NCCC[C@@H](C(=O)O)N1C(=O)[C@H]2COC[C@H]2C1=O | < 10% | 32% | < 10% | < 10% | 10% | < 10% | < 10% | < 10% | < 10% | –
CN(C)CCNC(=O)[C@@H]1CNC[C@@H]1C(=O)O | – | – | – | – | – | – | – | – | – | solubility [21]: Insoluble
CCOC(=O)C[C@@H](C(=O)OCC)N1C(=O)[C@H]2CNC[C@H]2C1=O | < 10% | < 10% | 14% | 15% | < 10% | < 10% | < 10% | 15% | < 10% | –
C[C@@]12C(=O)OC(=O)[C@]1(C)[C@H]1CC[C@@H]2O1 [CANTHARIDIN] | – | – | – | – | – | – | – | – | – | IC50 [10]: 6 µM; GI50 [11]: 1.7 µM; GI50 (MCF7 [12]): 7.5 µM; GI50 (HT-29 [13]): 3.2 µM; GI50 (A2780 [14]): 4.4 µM; GI50 [15]: 3.7 µM; IC50 [16]: 0.9 µM; GI50 (DU-145 [17]): 2.1 µM; GI50 (A-431 [18]): 2.9 µM; GI50 (NCI-H460 [19]): 3.3 µM; GI50 (SW480 [20]): 4.5 µM
O=C1[C@H]2CN(Cc3ccccc3)C[C@H]2C(=O)N1CCN1CCOCC1 | 12% | 25% | 33% | 51% | 11% | 25% | < 10% | 45% | 49% | –
O=C(O)[C@H](Cc1c[nH]cn1)N1C(=O)[C@H]2CNC[C@H]2C1=O | < 10% | < 10% | < 10% | < 10% | < 10% | < 10% | < 10% | 10% | < 10% | –
O=C(O)C[C@@H](C(=O)O)N1C(=O)[C@H]2COC[C@H]2C1=O | < 10% | < 10% | 15% | 13% | < 10% | < 10% | < 10% | 14% | < 10% | –
CCOC(=O)C[C@@H](C(=O)OCC)N1C(=O)[C@H]2COC[C@H]2C1=O | < 10% | < 10% | 15% | 16% | < 10% | < 10% | < 10% | 16% | < 10% | –
CC(CO)N1C(=O)[C@H]2COC[C@H]2C1=O (stereo partly specified) | < 10% | < 10% | 13% | < 10% | < 10% | < 10% | 10% | < 10% | < 10% | –
NCCCC[C@@H](C(=O)O)N1C(=O)[C@H]2COC[C@H]2C1=O | 32% | 23% | 31% | 37% | 35% | 17% | 27% | 30% | 30% | –
O=C(O)[C@H](Cc1c[nH]cn1)N1C(=O)[C@H]2CSC[C@H]2C1=O | 14% | < 10% | < 10% | 15% | < 10% | < 10% | 10% | 10% | < 10% | –
NCCCC[C@@H](C(=O)O)N1C(=O)[C@H]2CSC[C@H]2C1=O | 22% | 10% | 16% | 30% | 19% | < 10% | 19% | 22% | < 10% | –
O=C1[C@H]2CNC[C@H]2C(=O)N1N1CCOCC1 | – | – | – | – | – | – | – | – | – | solubility [21]: Insoluble
CC(CO)N1C(=O)[C@H]2CN(Cc3ccccc3)C[C@H]2C1=O (stereo partly specified) | 10% | 18% | 21% | 22% | < 10% | 10% | 14% | 15% | 12% | –
O=C(O)[C@H](Cc1c[nH]cn1)N1C(=O)[C@H]2COC[C@H]2C1=O | 22% | 15% | 23% | 20% | 26% | 11% | 21% | 26% | 18% | –
CCC(CO)N1C(=O)[C@H]2CSC[C@H]2C1=O (stereo partly specified) | < 10% | < 10% | < 10% | < 10% | < 10% | < 10% | < 10% | < 10% | < 10% | –
CCC(CO)N1C(=O)[C@H]2CN(Cc3ccccc3)C[C@H]2C1=O (stereo partly specified) | < 10% | < 10% | 15% | < 10% | < 10% | < 10% | < 10% | 14% | 15% | –
